Bounds are passed on as bounds.

The target in experiment [1] is Gamma-aminobutyric acid receptor subunit alpha-1/alpha-2/beta-2/gamma-2 (Homo sapiens, UniProt P14867+P18507+P47869+P47870). Format: functional, cell-based.
For experiment [2], the target named is T1, Alpha-1A adrenergic receptor (Homo sapiens, UniProt P35348).
T1 sequence (P35348 whole entry): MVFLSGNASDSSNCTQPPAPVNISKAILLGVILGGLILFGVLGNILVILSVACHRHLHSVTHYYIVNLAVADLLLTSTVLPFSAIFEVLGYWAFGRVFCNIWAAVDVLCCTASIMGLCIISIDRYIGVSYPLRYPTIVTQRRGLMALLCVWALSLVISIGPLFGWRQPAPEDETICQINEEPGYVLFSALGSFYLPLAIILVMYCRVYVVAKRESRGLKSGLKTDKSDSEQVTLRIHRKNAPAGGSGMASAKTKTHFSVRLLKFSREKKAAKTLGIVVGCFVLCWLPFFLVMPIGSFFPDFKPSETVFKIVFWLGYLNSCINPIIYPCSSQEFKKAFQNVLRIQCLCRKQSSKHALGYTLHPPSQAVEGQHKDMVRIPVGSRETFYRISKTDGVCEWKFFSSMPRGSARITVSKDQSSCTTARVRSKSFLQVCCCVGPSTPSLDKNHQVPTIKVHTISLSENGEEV
Format: functional, cell-based.

Experiment [3] deals with T2, Thromboxane A2 receptor (Homo sapiens, UniProt P21731).
T2 sequence (P21731 whole entry): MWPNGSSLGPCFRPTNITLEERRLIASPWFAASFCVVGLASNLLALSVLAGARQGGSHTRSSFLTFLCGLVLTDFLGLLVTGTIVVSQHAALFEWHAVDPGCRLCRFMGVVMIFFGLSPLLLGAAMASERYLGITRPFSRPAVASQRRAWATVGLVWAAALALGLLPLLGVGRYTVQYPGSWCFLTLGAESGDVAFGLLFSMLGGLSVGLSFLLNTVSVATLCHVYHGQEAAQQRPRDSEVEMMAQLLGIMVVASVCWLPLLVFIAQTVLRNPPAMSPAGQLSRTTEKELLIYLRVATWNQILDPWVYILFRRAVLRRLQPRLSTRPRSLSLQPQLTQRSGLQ

In experiment [4] the target is T3, Progesterone receptor (Homo sapiens, UniProt P06401).
T3 sequence (P06401 whole entry): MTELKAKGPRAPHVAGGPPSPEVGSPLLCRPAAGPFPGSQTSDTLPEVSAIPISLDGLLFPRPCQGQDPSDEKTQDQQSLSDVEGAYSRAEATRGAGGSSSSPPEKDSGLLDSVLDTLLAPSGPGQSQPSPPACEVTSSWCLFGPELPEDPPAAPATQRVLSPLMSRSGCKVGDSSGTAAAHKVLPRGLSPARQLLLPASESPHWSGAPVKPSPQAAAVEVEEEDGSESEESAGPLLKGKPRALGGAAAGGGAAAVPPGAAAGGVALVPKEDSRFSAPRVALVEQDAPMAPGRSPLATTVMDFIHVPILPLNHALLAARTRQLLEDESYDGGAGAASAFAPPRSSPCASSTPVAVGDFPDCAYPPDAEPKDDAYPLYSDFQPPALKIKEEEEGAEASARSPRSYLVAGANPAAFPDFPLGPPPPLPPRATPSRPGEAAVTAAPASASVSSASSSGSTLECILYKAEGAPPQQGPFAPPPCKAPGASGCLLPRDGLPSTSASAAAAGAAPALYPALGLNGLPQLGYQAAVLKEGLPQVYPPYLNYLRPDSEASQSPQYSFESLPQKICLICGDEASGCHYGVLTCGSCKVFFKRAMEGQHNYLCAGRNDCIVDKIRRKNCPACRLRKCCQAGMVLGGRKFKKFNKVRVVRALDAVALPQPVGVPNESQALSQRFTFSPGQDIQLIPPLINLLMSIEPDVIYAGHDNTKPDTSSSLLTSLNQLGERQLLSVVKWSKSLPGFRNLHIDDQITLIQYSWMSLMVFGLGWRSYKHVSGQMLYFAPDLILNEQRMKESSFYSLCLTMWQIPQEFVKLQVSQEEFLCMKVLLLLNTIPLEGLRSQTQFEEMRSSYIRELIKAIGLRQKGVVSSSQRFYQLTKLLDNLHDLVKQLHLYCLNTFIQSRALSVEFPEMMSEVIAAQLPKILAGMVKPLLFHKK

Experiment [5] addresses Cannabinoid receptor 1 (Homo sapiens, UniProt P21554).
Experiment [6] has as its target D(1A) dopamine receptor (Homo sapiens, UniProt P21728).
Experiment [7] addresses Vasopressin V1a receptor (Homo sapiens, UniProt P37288).
Experiment [8] has as its target T4, Gastrin/cholecystokinin type B receptor (Homo sapiens, UniProt P32239).
T4 sequence (P32239 whole entry): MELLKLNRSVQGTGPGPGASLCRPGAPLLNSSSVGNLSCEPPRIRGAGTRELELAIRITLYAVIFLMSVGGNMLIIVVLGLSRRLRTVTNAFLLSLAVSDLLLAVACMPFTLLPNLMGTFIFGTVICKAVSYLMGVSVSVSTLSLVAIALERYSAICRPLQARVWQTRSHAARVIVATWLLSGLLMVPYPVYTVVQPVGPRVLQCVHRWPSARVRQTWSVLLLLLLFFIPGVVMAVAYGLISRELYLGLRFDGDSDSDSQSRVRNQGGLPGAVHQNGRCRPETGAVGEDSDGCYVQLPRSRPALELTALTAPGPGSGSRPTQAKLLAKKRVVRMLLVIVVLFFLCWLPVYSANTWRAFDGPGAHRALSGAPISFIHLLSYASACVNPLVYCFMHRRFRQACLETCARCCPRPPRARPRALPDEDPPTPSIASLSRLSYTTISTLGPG

In experiment [9] the target is Glucagon receptor (Homo sapiens, UniProt P47871).
Chain of Glucagon receptor (P47871 whole entry): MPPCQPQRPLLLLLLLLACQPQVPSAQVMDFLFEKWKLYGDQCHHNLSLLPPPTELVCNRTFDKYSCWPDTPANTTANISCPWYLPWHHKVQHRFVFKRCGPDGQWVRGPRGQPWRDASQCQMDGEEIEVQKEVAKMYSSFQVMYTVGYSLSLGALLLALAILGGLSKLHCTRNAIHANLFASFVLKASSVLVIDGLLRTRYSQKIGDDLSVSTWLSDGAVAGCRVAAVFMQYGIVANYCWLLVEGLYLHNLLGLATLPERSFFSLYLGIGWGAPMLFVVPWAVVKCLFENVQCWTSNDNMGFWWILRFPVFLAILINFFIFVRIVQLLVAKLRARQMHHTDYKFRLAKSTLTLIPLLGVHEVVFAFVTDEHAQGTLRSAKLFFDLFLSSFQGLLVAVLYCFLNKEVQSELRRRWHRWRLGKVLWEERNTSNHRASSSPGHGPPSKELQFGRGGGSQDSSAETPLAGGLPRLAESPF
Experiment [10] has as its target D(3) dopamine receptor (Homo sapiens, UniProt P35462).
Further: assay procedure not described here.

Chain of Gamma-aminobutyric acid receptor subunit alpha-1/alpha-2/beta-2/gamma-2 (P14867 whole entry): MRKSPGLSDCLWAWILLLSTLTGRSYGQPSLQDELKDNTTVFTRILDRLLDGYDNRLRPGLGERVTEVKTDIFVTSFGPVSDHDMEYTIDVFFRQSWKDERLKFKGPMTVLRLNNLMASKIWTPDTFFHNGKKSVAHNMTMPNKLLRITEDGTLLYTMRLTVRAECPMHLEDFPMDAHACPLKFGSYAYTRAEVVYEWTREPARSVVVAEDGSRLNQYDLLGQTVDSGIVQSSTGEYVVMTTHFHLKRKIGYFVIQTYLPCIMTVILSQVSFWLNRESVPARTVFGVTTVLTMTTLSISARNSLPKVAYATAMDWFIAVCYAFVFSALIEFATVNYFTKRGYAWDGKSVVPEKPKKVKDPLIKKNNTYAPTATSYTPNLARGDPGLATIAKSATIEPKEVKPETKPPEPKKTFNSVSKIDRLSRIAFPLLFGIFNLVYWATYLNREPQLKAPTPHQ
Chain of Gamma-aminobutyric acid receptor subunit alpha-1/alpha-2/beta-2/gamma-2 (P47870 whole entry): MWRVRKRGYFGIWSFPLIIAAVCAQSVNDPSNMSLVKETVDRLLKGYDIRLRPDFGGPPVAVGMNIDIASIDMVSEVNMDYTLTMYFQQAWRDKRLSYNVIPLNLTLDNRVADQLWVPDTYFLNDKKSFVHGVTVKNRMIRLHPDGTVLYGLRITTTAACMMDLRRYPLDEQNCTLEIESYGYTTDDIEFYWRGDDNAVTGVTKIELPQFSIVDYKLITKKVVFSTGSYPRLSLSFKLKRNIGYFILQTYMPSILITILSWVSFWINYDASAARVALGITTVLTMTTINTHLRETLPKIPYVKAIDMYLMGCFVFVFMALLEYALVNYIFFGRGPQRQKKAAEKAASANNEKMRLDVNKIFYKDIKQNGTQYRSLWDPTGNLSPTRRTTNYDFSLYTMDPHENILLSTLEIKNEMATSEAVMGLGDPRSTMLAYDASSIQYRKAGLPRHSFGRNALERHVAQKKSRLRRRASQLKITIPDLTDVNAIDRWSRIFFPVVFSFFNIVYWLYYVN
Chain of Gamma-aminobutyric acid receptor subunit alpha-1/alpha-2/beta-2/gamma-2 (P18507 whole entry): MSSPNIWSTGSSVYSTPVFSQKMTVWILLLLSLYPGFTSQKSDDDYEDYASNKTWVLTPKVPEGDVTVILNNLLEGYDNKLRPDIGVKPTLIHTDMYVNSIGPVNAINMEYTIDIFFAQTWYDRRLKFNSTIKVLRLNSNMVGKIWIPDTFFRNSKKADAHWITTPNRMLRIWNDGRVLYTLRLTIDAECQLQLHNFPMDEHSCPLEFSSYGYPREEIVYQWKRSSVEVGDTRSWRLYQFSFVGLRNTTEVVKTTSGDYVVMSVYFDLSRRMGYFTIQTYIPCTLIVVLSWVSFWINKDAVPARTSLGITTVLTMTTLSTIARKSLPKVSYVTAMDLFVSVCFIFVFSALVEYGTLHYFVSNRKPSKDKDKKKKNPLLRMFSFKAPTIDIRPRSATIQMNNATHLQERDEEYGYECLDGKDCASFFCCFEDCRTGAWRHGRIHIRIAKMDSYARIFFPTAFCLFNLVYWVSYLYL
Chain of Gamma-aminobutyric acid receptor subunit alpha-1/alpha-2/beta-2/gamma-2 (P47869 whole entry): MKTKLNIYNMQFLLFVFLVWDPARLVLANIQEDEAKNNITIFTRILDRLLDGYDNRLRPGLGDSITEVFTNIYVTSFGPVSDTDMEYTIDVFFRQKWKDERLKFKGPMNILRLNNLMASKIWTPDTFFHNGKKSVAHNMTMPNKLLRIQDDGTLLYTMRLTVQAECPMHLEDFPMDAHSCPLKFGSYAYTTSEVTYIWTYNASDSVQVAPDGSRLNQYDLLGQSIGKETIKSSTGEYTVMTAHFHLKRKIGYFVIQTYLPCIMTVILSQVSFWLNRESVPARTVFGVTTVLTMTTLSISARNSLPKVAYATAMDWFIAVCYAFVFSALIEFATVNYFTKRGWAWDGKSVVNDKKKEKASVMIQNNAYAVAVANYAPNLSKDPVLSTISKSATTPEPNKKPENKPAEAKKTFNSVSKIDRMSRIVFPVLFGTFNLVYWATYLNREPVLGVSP
Chain of D(1A) dopamine receptor (P21728 whole entry): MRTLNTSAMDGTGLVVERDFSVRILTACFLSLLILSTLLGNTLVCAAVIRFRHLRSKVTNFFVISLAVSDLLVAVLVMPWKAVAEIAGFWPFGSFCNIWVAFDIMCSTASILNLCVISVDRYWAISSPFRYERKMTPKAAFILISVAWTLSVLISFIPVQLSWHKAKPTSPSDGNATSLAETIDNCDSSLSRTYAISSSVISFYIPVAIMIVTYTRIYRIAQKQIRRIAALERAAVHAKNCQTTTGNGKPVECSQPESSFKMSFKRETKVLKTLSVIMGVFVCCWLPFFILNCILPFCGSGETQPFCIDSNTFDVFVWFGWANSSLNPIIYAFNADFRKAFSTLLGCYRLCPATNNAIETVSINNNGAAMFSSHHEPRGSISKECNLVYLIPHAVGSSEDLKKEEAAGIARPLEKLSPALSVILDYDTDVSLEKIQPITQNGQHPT
Chain of Cannabinoid receptor 1 (P21554 whole entry): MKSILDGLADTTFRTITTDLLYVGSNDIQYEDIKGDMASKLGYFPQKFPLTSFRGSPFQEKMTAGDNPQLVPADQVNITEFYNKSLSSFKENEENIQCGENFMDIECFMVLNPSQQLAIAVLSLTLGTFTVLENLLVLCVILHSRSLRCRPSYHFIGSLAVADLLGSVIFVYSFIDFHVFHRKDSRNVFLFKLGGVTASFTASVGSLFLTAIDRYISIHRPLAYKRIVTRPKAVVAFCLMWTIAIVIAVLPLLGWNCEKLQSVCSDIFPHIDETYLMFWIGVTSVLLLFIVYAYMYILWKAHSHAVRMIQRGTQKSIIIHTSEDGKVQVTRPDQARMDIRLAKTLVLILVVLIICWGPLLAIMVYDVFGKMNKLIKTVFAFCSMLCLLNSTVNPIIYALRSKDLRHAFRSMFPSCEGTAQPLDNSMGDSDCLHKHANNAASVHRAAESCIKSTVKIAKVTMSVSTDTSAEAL
Chain of Vasopressin V1a receptor (P37288 whole entry): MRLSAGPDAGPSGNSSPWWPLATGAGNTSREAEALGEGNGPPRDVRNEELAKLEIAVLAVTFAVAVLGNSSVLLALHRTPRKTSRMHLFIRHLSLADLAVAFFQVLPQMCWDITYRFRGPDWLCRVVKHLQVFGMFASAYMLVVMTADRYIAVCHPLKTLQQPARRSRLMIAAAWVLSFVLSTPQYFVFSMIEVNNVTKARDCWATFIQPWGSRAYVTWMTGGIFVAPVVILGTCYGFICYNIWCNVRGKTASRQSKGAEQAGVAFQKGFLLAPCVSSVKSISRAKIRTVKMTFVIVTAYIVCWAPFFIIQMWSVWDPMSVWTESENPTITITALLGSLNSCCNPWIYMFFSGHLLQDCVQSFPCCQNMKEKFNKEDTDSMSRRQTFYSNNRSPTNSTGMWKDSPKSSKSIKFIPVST
Chain of D(3) dopamine receptor (P35462 whole entry): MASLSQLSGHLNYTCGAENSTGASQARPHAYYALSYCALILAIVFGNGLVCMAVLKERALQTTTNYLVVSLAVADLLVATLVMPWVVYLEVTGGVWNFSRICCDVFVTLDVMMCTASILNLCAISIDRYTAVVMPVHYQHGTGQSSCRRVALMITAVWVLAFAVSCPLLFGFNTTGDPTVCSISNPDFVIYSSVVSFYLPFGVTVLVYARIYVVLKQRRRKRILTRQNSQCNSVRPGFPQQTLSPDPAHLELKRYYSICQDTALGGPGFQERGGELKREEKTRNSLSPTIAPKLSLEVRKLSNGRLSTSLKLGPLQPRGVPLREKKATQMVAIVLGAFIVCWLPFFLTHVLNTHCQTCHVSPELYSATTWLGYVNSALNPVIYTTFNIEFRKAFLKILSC

Usually AC50 stands for the midpoint of the concentration-response curve, whichever way the signal moves. A low value points to activity at low concentration. As to `CC(=O)OCC(=O)[C@@]1(O)CC[C@H]2[C@@H]3CCC4=CC(=O)CC[C@]4(C)[C@H]3C(=O)C[C@@]21C` [CORTISONE ACETATE], the AC50 in [1] and in experiment [2] was above 30 µM in each case.

For `CCC[C@@H]1C[C@@H](C(=O)N[C@@H]([C@H]2O[C@H](SC)[C@H](O)[C@@H](O)[C@H]2O)[C@H](C)Cl)N(C)C1` [CLINDAMYCIN], the AC50 is above 30 µM in experiment [3]; above 30 µM in experiment [4]; above 10 µM in experiment [5]; above 10 µM in experiment [6]; above 10 µM in experiment [7]; above 30 µM in experiment [8]. In addition, the AC50 in [9] and in experiment [2] was above 30 µM throughout.

Take `N[C@@H](C(=O)N[C@@H]1C(=O)N2C(C(=O)O)=C(Cl)CS[C@H]12)c1ccccc1` [CEFACLOR ANHYDROUS]: the AC50 in experiment [7], in [1], in experiment [8] and in experiment [2] was above 30 µM in each case.

In the case of `NC1=NC(=O)C(c2ccccc2)O1` (centres undefined) [PEMOLINE], the AC50 in experiment [3], in [4] and in experiment [8] was above 30 µM throughout.

In the case of `CN1CCCC(n2nc(Cc3ccc(Cl)cc3)c3ccccc3c2=O)CC1` (centres undefined) [AZELASTINE], the AC50 in [7], in [1] and in [2] was above 30 µM each time.

Take `CC(C(=O)O)c1ccc(N2CC=CC2)c(Cl)c1` (centres undefined) [PIRPROFEN]: the AC50 in experiment [3] is above 30 µM; in experiment [4], above 30 µM; in [5] it was above 10 µM; in experiment [10], above 30 µM; in experiment [6], above 10 µM; in experiment [7] it was above 10 µM. The AC50 in experiment [8], in experiment [9] and in experiment [2] was above 30 µM in each case.

For `CC(C)C(=O)Nc1ccc([N+](=O)[O-])c(C(F)(F)F)c1` [FLUTAMIDE], the AC50 in [3] was above 30 µM; in [5], above 10 µM; in [10], above 30 µM; in experiment [7], above 30 µM; in [8], above 30 µM; in experiment [2], above 30 µM.

In the case of `NC(=O)c1ncn([C@@H]2O[C@H](CO)[C@@H](O)[C@H]2O)c1O` [MIZORIBINE], the AC50 in experiment [7], in experiment [1], in [8] and in experiment [2] was above 30 µM each time.

Take `OCc1cc([C@@H](O)CNCCCCCCOCCOCc2c(Cl)cccc2Cl)ccc1O` [VILANTEROL]: the figures for the AC50 in [7], in experiment [1] and in experiment [2] were above 30 µM, above 30 µM and 1.1 µM, respectively.

With `CO/N=C(\C(=O)N[C@@H]1C(=O)N2C(C(=O)[O-])=C(C[N+]3(C)CCCC3)CS[C@H]12)c1csc(N)n1`, the AC50 is above 30 µM in [3]; above 30 µM in experiment [5]; above 300 µM in experiment [7]; above 2400 µM in experiment [1]; above 30 µM in experiment [8]; above 300 µM in experiment [2].

With `CC(=O)c1ccc2c(c1)N(CCCN1CCN(CCO)CC1)c1ccccc1S2` [ACETOPHENAZINE], the AC50 in experiment [7], in [1] and in experiment [2] was above 30 µM each time.

Regarding `CC(C)NCC(O)COc1ccc(COCCOC(C)C)cc1` (centres undefined) [BISOPROLOL], the AC50 in [3] was above 30 µM; in [4] it was above 30 µM; in experiment [5], above 10 µM; in experiment [6], above 10 µM; in [7], above 10 µM; in experiment [8] it was above 30 µM. The AC50 in experiment [9] was above 30 µM.

For the compound `OCCN1CCN(CCCN2c3ccccc3C=Cc3ccccc32)CC1` [OPIPRAMOL], the AC50 in experiment [10] is 0.42 µM; in experiment [6] it was 2.24 µM; in [7], above 30 µM; in [1] it was above 30 µM; in [8], above 30 µM; in experiment [2] it was above 30 µM.

As to `CN(CCOc1ccc(NS(C)(=O)=O)cc1)CCc1ccc(NS(C)(=O)=O)cc1` [DOFETILIDE], the AC50 in experiment [3] was above 30 µM; in [4], above 30 µM; in [5], above 10 µM; in [10], 3.36 µM; in experiment [6] it was above 10 µM; in experiment [7], above 10 µM. Further, the AC50 in experiment [8], in [9] and in experiment [2] was above 30 µM in each case.

For the compound `CC[C@H](C)C(=O)O[C@H]1C[C@H](O)C=C2C=C[C@H](C)[C@H](CC[C@@H](O)C[C@@H](O)CC(=O)O)[C@H]21` [PRAVASTATIN], the AC50 in [5] was above 10 µM; in experiment [1], above 30 µM; in experiment [2] it was above 30 µM.

Consider `CC(C)NNC(=O)c1ccncc1` [IPRONIAZID], for which the AC50 in experiment [1] and in [2] was above 30 µM each time.

Regarding `Oc1ncnc2[nH]ncc12` [ALLOPURINOL], the AC50 in experiment [3] was above 30 µM; in [4], above 30 µM; in experiment [5] it was above 10 µM; in experiment [10], above 30 µM; in [6] it was above 10 µM; in experiment [7], above 10 µM. In addition, the AC50 in experiment [8], in [9] and in experiment [2] was above 30 µM throughout.

Regarding `CC(C)Cc1ccc(CC(=O)O)cc1` [IBUFENAC], the concentration at half-maximal activity (AC50) in [7], in [1] and in experiment [2] was above 30 µM throughout.

Regarding `CC(N)Cc1ccccc1` (centres undefined) [AMPHETAMINE], the AC50 is above 30 µM in [3]; above 30 µM in experiment [4]; above 10 µM in experiment [5]; above 30 µM in experiment [7]; above 30 µM in experiment [1]; above 30 µM in experiment [8]. Besides, the AC50 in experiment [9] and in experiment [2] was above 30 µM in each case.

With `CCN(CC)CCNC(=O)c1cc(Cl)c(N)cc1OC` [METOCLOPRAMIDE], the AC50 in [3] was above 30 µM; in experiment [4], above 30 µM; in experiment [5] it was above 10 µM; in experiment [6], above 10 µM; in [7] it was above 10 µM; in experiment [8], above 30 µM. Also, the AC50 in [9] and in experiment [2] was above 30 µM in each case.

Regarding `O=C(NC[C@H]1CN(c2ccc(N3CCOCC3=O)cc2)C(=O)O1)c1ccc(Cl)s1` [RIVAROXABAN], the AC50 in [10], in experiment [1] and in experiment [2] was above 30 µM each time.

The values above are taken from ChEMBL document CHEMBL5291721, “A preclinical secondary pharmacology resource illuminates target-adverse drug reaction associations of marketed drugs” (Nat Commun, 2023).
